The test system of one data set is aromatase. In words: Basal aromatase activity in intact monolayers of cultured breast tissue fibroblasts. The class given is cell-based, human. The settings on record: for inhibition of basal aromatase activity (in words): stromal fibroblasts from normal or malignant breast tissue; for inhibition of basal aromatase activity: fibroblasts derived from reduction mammoplasty tissue, 24 h pre-treatment then 48 h with dexamethasone 100 nmol/l. Here is the method: (§1) Inhibition of basal and TNFα-stimulated aromatase activity by paclitaxel (Pax) in breast tissue fibroblasts. Paclitaxel was added to cells which were cultured for 24 h in 2% stripped foetal calf serum. TNFα was added, in the presence of dexamethasone (100 nmol/l) and cells cultured for a further 48 h in the same medium. Controls and cells with paclitaxel, but not TNFα, were also cultured in the presence of dexamethasone for a 48 h period. Aromatase activity was measured in intact monolayers after washing cells with phosphate buffered saline. (means±SD, n=3; a, p<0.001 versus controls; b, p<0.001 versus TNFα-stimulated aromatase activity).
(§2) Samples of breast adipose or tumour tissue were obtained from women undergoing reduction mammoplasty or lumpectomy after obtaining their informed consent.
(§3) Fibroblasts were cultured as previously described (2). Briefly, they were cultured in Eagles' modified minimal essential medium containing Hepes buffer (20 mmol/l), 10% foetal calf serum (FCS) and supplements. Cells were routinely passaged 2-3 times after which replicate 25 cm^2 flasks were seeded with fibroblasts and grown to confluency.
(§4) At the end of the treatment period aromatase activity was measured in intact monolayers using [1β-^3H] androstenedione (15-30 Ci/mmol, NEN-Du Pont, Stevenage, Herts, UK) over a 3-20 h period (2, 3). The number of cells was measured by counting cell nuclei using a Coulter counter. Experiments were carried out in triplicate and results shown are representative of 2-3 investigations.

For data set [1], the system named is TNFα stimulated aromatase activity. In words: TNFα-stimulated aromatase activity in cultured breast tissue fibroblasts. The class given is cell-based, human. As to conditions: for inhibition of TNFα-stimulated aromatase activity (in words): stromal fibroblasts from normal or malignant breast tissue; for inhibition of TNFα (20 ng/ml) stimulated aromatase activity, significance: compound 10 μM, p<0.001; for inhibition of TNFα-stimulated aromatase activity: fibroblasts derived from reduction mammoplasty tissue, 24 h pre-treatment, then TNFα plus dexamethasone for 48 h. How it is done: as §1, §2, §3, §4

Data set [2] concerns IL-6 plus IL-6sR stimulated aromatase activity. Description: IL-6 plus IL-6sR stimulated aromatase activity in breast fibroblasts. Format: cell-based, human. As to conditions: for inhibition of stimulation of aromatase activity by IL-6 plus its soluble receptor (in words): breast fibroblasts; for inhibition of IL-6 plus IL-6sR (50 ng+100 ng/ml) stimulated aromatase activity, significance: compound 10 μM, p<0.001. How it is done: (§5) The experimental protocol used was as described in the legend to FIG. 1.
as §3, §4

Data set [3] has as its system PGE2 stimulated aromatase activity. Description: PGE2 stimulated aromatase activity in breast fibroblasts. The class given is cell-based, human. The settings on record: for inhibition of stimulation of aromatase activity by PGE2 (in words): breast fibroblasts; for inhibition of PGE2 (10 μM) stimulated aromatase activity, significance: compound 10 μM, p<0.001. Here is the method:
as §5, §3, §4

Another data set relates to B16 melanoma. The settings on record: oral administration, mice; cited from earlier work.
For the next data set, the system named is Meth A sarcoma. The settings on record: oral administration, mice; cited from earlier work.
Data set [4] deals with MDA-MB-435 breast cancer cells. The settings on record: oral administration, mice; cited from earlier work.
Data set [5] concerns TNFα stimulated aromatase activity. As to conditions: high concentrations, 10-100 μM; cited from earlier work.
Another data set relates to TNFα receptors. As to conditions: human macrophages; cited from earlier work.

Entries after “also recorded” stand apart in the source; their conditions may differ.

Regarding `COc1cc2c(cc1OS(N)(=O)=O)CCC1C2CC[C@]2(C)C(=O)CCC12` (stereo partly drawn) [2-MeOEMATE, 2-methoxyoestrone-3-O-sulphamate], the “inhibition of basal aromatase activity (in words)” value in the data set with aromatase is on record as “inhibited; also recorded: reduced”. Further, the “inhibition of TNFα-stimulated aromatase activity (in words)” value in data set [1] was “inhibited; also recorded: reduced”. The “inhibition of stimulation of aromatase activity by IL-6 plus its soluble receptor (in words)” value in data set [2] is “antagonise; also recorded: inhibited”. Besides, in data set [3], the “inhibition of stimulation of aromatase activity by PGE2 (in words)” value (from here on “inhibition of stimulation … by PGE2 (in words)”) is on record as “antagonise; also recorded: inhibited”.

`COc1cc2c(cc1O)CC[C@@H]1[C@@H]2CC[C@]2(C)[C@@H](O)CC[C@@H]12` [2-meOE2, 2-methoxyoestradiol]: in the data set with aromatase, the “inhibition of basal aromatase activity” value amounted to 46% and the “inhibition of basal aromatase activity (in words)” value is reported as “inhibited”. Further, in [1], the “inhibition of TNFα (20 ng/ml) stimulated aromatase activity, significance” value was “significant”; the “inhibition of TNFα-stimulated aromatase activity” value is given as 56%; the “inhibition of TNFα-stimulated aromatase activity (in words)” value is “inhibited”. Further, the “inhibition of TNFα stimulation of aromatase activity, dose-response study” value in data set [1] (compound at 0.1 μM) is on record as 51%. Further, the “inhibition of TNFα-stimulated aromatase activity (in words)” value in data set [1] (listed as 2-methoxyoestradiol) is on record as “significantly inhibited”. In [2], the “inhibition of IL-6 plus IL-6sR (50 ng+100 ng/ml) stimulated aromatase activity, significance” value is recorded as “significant”. Further, in data set [3], the “inhibition of stimulation … by PGE2 (in words)” value is “antagonise; also recorded: inhibited” and the “inhibition of PGE2 (10 μM) stimulated aromatase activity, significance” value is “significant”. In addition, the tumour growth result in the data set on B16 melanoma is given as “significantly reduced”. Also, the tumour growth entry in the data set with Meth A sarcoma is on record as “significantly reduced”. Besides, the tumour growth result in [4] is on record as “significantly reduced”.

`COc1cc2c(cc1O)CC[C@@H]1[C@@H]2CC[C@]2(C)[C@@H](O)[C@H](O)C[C@@H]12` [2-meOE3, 2-methoxyoestriol]: the “inhibition of TNFα stimulation of aromatase activity at 5 μM (in words)” value in data set [1] (compound at 5 μM) is recorded as “did not significantly reduce”. The “inhibition of TNFα stimulation of aromatase activity at highest concentration tested (in words)” value in data set [1] (highest concentration tested) is reported as “some inhibitory effect”. The “inhibition of TNFα-stimulated aromatase activity (in words)” value in data set [1] is recorded as “less effective”; in [1] (listed as 16α-hydroxy derivative of 2-meOE2), “limited ability to suppress”.

Turning to `COc1cc2c(c(OC)c1OC)-c1ccc(OC)c(=O)cc1[C@@H](NC(C)=O)CC2` [Colchicine], the “inhibition of TNFα-stimulated aromatase activity (in words)” value in [1] is “without effect”; in data set [1] (listed as colchicine), “unable to inhibit”.

As to `C=C1[C@@H](C)[C@H]2[C@H](Cc3ccccc3)NC(=O)[C@]23OC(=O)/C=C/[C@H](O)CCC[C@@H](C)C/C=C/[C@H]3[C@@H]1O` [Cytocholasin B], the results for the “inhibition of TNFα-stimulated aromatase activity (in words)” value in data set [1] and in data set [1] (listed as cytocholasin B) were “without effect” and “unable to inhibit”, respectively.

As to `C[C@]12CC[C@@H]3c4ccc(O)cc4CC[C@H]3[C@@H]1CC[C@@H]2O` [oestradiol], the “inhibition of TNFα stimulated aromatase activity in adipose stromal cells” value in data set [5] is “can inhibit”.

One may read the inhibition as the drop in the measured response relative to a control, in per cent. Take `CC(=O)O[C@H]1C(=O)[C@@]2(C)[C@H]([C@H](OC(=O)c3ccccc3)[C@]3(O)C[C@H](OC(=O)[C@H](O)[C@@H](NC(=O)c4ccccc4)c4ccccc4)C(C)=C1C3(C)C)[C@]1(OC(C)=O)CO[C@@H]1C[C@@H]2O` [paclitaxel]: in the data set on aromatase, the “inhibition of basal aromatase activity” value is reported as 88% and the “inhibition of basal aromatase activity (in words)” value is “inhibited”. Also, the inhibition at 0.1 µM in [1] (Homo sapiens, Fibroblast, compound at 0.1 μM, read-out: inhibition of TNFα stimulation of aromatase activity, dose-response study) came out at 90%. In data set [1], the “inhibition of TNFα (20 ng/ml) stimulated aromatase activity, significance” value is reported as “significant”; the “inhibition of TNFα-stimulated aromatase activity” value is on record as 91%; the “inhibition of TNFα-stimulated aromatase activity (in words)” value is recorded as “significantly inhibited”. In addition, in data set [1] (listed as Paclitaxel), the “inhibition of TNFα-stimulated aromatase activity (in words)” value was “inhibited”. Further, in data set [2], the “inhibition of stimulation of aromatase activity by IL-6 plus its soluble receptor (in words)” value was “antagonise; also recorded: inhibited” and the “inhibition of IL-6 plus IL-6sR (50 ng+100 ng/ml) stimulated aromatase activity, significance” value is recorded as “significant”. Also, in data set [3], the “inhibition of stimulation … by PGE2 (in words)” value was “antagonise; also recorded: inhibited” and the “inhibition of PGE2 (10 μM) stimulated aromatase activity, significance” value is given as “significant”. Besides, the “effect on TNFα receptors” value with TNFα receptors was “rapidly down-regulate”.

As for TNFα, the “stimulation of aromatase activity” value in data set [1] (in the presence of dexamethasone, reduction mammoplasty fibroblasts) came out at 375%.
